Data as given in paper PMC10096180, “Half-Sandwich Type Platinum-Group Metal Complexes of C-Glucosaminyl Azines: Synthesis and Antineoplastic and Antimicrobial Activities” (Molecules, 2023).
Like-named read-outs stand apart in the source and are kept apart here.

Experiments:
[1] = tested on: U251 cells; experiment: SRB assay, 48 h; type: cell-based
Procedure: (§1) Figure 8 Assessment of free ligand 3a and complex Ru-3a for cytostatic activity in multiple carcinomas. […] Cells were treated with the compounds in the concentrations indicated for 48 h; then, an SRB assay was performed. Data are represented as average ± SD from three biological replicates; individual assays were performed in duplicates. Values were normalized for vehicle-treated cells; absorbance for vehicle-treated cells equals 1. Statistical significance was assessed using a one-way ANOVA test comparing all values to the lowest concentration of a compound. Before the test, normality was assessed using the Shapiro–Wilk test, and the post hoc test was chosen accordingly. […] An SRB assay measures protein content of cells in correlation with the cell number in an assay well and can therefore be used to assess cell proliferation or long-term cytostasis. Cells were seeded in 96-well plates the day before the assay. Cells were treated with the compounds for 48 h. Then medium was removed, and cells were fixed with 10% trichloroacetic acid. […] Stained cells were washed in 1% acetic acid 5 times; acetic acid was removed, and cells were left to dry. Protein-bound SRB was released by adding 100 μL 10 mM Tris base. Plates were measured in a plate photometer (Thermo Scientific Multiscan GO spectrophotometer, Waltham, MA, USA) at 540 nm. On each plate, wells were designed to contain vehicle-treated cells. […] Statistical analysis was performed using version 8.0.1 of GraphPad Prism. Values were tested for normal distribution using the Shapiro–Wilk normality test. […] In other cases, the percentage of inhibition was taken for the maximum concentration (100 μM).

[2] = tested on: Capan2 cells; experiment: SRB assay, 48 h; type: cell-based
Procedure: as §1

[3] = tested on: MCF7 cells; experiment: SRB assay, 48 h; type: cell-based
Procedure: as §1

[4] = tested on: ID8 cells; experiment: SRB assay, 48 h; type: cell-based
Procedure: as §1

[5] = tested on: A2780 cells; experiment: SRB binding assay, cytostasis, 48 h treatment; type: cell-based; details: for A2780 SRB Max Inhibition: up to 100 μM, ND = not detectable
Method in brief: (§2)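 Ovarian cancer A2780 cells and primary human dermal fibroblasts treated 48 h, TCA-fixed, SRB-stained, absorbance at 540 nm relative to vehicle. IC50 from four-parameter fit when a plateau was reached or inhibition exceeded 90%; otherwise percent inhibition at 100 μM.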

[6] = tested on: A2780 cells; experiment: MTT reduction assay, early toxicity, 4 h treatment; type: cell-based
Method in brief: (§3)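 Cells plated the day before, exposed to compounds for 4 h, then MTT 0.5 mg/mL for 40–60 min at 37 °C; reduced dye dissolved in DMSO, read at 540 nm relative to vehicle wells. IC50 by four-parameter fit; otherwise % inhibition at 100 μM.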

[7] = tested on: primary human dermal fibroblasts; experiment: MTT reduction assay, early toxicity, 4 h treatment; type: cell-based; details: up to 100 μM
Method in brief: as §3

[8] = tested on: Enterococcus faecalis (ATCC29212); experiment: Broth microdilution MIC, reference strain; type: cell-based; details: 24 h, tested range 0.08–40 μM, read-out: MIC E. faecalis ATCC 29,212
Method in brief: (§4)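 EUCAST broth microdilution in Mueller–Hinton broth, inoculum 5.0 × 10^5 CFU/mL, compounds at 0.08–40 μM (twofold dilutions), 24 h at 37 °C. Plates read visually; MIC taken as lowest concentration giving ≥50% inhibition versus drug-free growth control.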

[9] = tested on: Staphylococcus aureus (ATCC29213); experiment: Broth microdilution MIC, reference strain; type: cell-based; details: 0.08–40 μM, read-out: MIC S. aureus ATCC 29213
Method in brief: as §4

[10] = tested on: vancomycin-resistant Enterococcus (VRE) clinical isolates; experiment: Broth microdilution MIC, clinical VRE isolates; type: cell-based, E. faecium; details: 24 h, 0.08–40 μM
Method in brief: (§5)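 S. aureus and E. faecium clinical isolates (Debrecen, 2018–2020; MALDI-TOF-identified) tested by EUCAST broth microdilution in Mueller–Hinton broth at 5.0 × 10^5 CFU/mL across 0.08–40 μM (twofold). After 24 h at 37 °C, visually read; MIC is the lowest concentration giving ≥50% inhibition versus growth control. At least two runs in duplicate.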

[11] = tested on: methicillin-resistant Staphylococcus aureus (MRSA) clinical isolates; experiment: Broth microdilution MIC, clinical MRSA isolates; type: cell-based; details: 24 h, 0.08–40 μM
Method in brief: as §5

[12] = tested on: primary human dermal fibroblasts; experiment: SRB binding assay, cytostasis, 48 h treatment; type: cell-based; details: up to 100 μM, ND = not detectable
Method in brief: as §2

[13] = Distribution coefficient (logD), n-octanol-PBS; type: physicochemical; details: n-octanol-PBS (pH = 7.4) system
Procedure: The logD values of the newly synthesized complexes were determined according to a procedure described in our previous publications. page 64: Ir-7b +1.17 Rh-7b +1.41 Ru-7c +1.31 Os-7c +1.59 Ir-7c +1.40 Rh-7c +1.13 Ru-7d +1.26 Os-7d +1.42 Ir-7d +1.30 Rh-7d +1.04 Ru-7e +2.22 Os-7e +2.21 Ir-7e +1.39 Rh-7e +1.66 *logD was determined in an n-octanol-PBS (pH = 7.4) system 64 (14 pictures or pasted objects on this page, not shown here)

[14] = tested on: A2780 (ovarian); details: Figure 1, complex Ia; read-out: IC50 A2780 (ovarian, cisplatin resistant); cited from earlier work
[15] = tested on: ID8 (ovarian); design: method as in PMID 36793764, PMID 34638791, PMID 35054999; details: Figure 1, complex Ia; cited from earlier work
[16] = tested on: Saos (sarcoma); design: method as in PMID 36793764, PMID 34638791, PMID 35054999; details: Figure 1, complex Ia; cited from earlier work
[17] = tested on: Gram-positive multiresistant bacteria (Staphylococcus aureus, Enterococcus species); design: method as in PMID 35494644, PMID 36793764; details: Figure 1, Staphylococcus aureus; cited from earlier work
[18] = tested on: Capan2 (pancreatic adenocarcinoma); design: method as in PMID 36793764, PMID 34638791, PMID 35054999; details: Figure 1, complex Ia; cited from earlier work
[19] = inhibition at maximum concentration (100 μM) where no plateau, ND = not detectable
[20] = clinical isolate 25,051 VRE, read-out: MIC 25,051 VRE
[21] = clinical isolate 25,498 VRE, read-out: MIC 25,498 VRE
[22] = clinical isolate 27,085 VRE, read-out: MIC 27,085 VRE
[23] = clinical isolate 20,426 MRSA, read-out: MIC 20,426 MRSA
[24] = clinical isolate 24,035 MRSA, read-out: MIC 24,035 MRSA
[25] = clinical isolate 24,268 MRSA, read-out: MIC 24,268 MRSA
[26] = clinical isolate 24,272 MRSA, read-out: MIC 24,272 MRSA
[27] = clinical isolate 24,328 MRSA, read-out: MIC 24,328 MRSA
[28] = clinical isolate 24,408 MRSA, read-out: MIC 24,408 MRSA

N[C@@H]1[C@@H](OCc2ccccc2)[C@H](OCc2ccccc2)[C@@H](COCc2ccccc2)O[C@H]1c1ccccn1 [Complex 3a, 2-(2′-Amino-2′-deoxy-3′,4′,6′-tri-O-benzyl-β-D-glucopyranosyl)pyridine]
U251 SRB Max Inhibition [1]: >90% | Capan2 SRB Max Inhibition [2]: >90% | IC50 [2]: 15 µM | IC50 ([2]; Homo sapiens, Capan-2, 48 h): 10 to 30 µM | MCF7 SRB Max Inhibition [3]: >90% | IC50 [4]: 13.1 µM | ID8 SRB Max Inhibition [4]: >90% | IC50 ([4]; Mus musculus, ID8, 48 h): 10 to 30 µM | IC50 [5]: 36.2 µM | IC50 ([5]; Homo sapiens, A2780, 48 h): > 30 µM | A2780 SRB Max Inhibition [5]: >90% | inhibition at 100 µM ([6]; Homo sapiens, inhibition at maximum concentration (100 μM) where no plateau, ND = not detectable, read-out: A2780 MTT Max Inhibition): 70.2% | Fibroblast MTT Max Inhibition [7]: 32.22% | MIC ([8]; Enterococcus faecalis): > 40 µM | MIC ([9]; Staphylococcus aureus, ATCC29213, 24 h): > 40 µM | MIC ([10]; Enterococcus, clinical isolate 25,051 VRE, read-out: MIC 25,051 VRE): > 40 µM | MIC ([10]; Enterococcus, clinical isolate 25,498 VRE, read-out: MIC 25,498 VRE): > 40 µM | MIC ([10]; Enterococcus, clinical isolate 27,085 VRE, read-out: MIC 27,085 VRE): > 40 µM | MIC ([11]; Staphylococcus aureus, clinical isolate 20,426 MRSA, read-out: MIC 20,426 MRSA): > 40 µM | MIC ([11]; Staphylococcus aureus, clinical isolate 24,035 MRSA, read-out: MIC 24,035 MRSA): > 40 µM | MIC ([11]; Staphylococcus aureus, clinical isolate 24,268 MRSA, read-out: MIC 24,268 MRSA): > 40 µM | MIC ([11]; Staphylococcus aureus, clinical isolate 24,272 MRSA, read-out: MIC 24,272 MRSA): > 40 µM | MIC ([11]; Staphylococcus aureus, clinical isolate 24,328 MRSA, read-out: MIC 24,328 MRSA): > 40 µM | MIC ([11]; Staphylococcus aureus, clinical isolate 24,408 MRSA, read-out: MIC 24,408 MRSA): > 40 µM

Cc1ccc(C(C)C)cc1.F[P-](F)(F)(F)(F)F.N[C@@H]1[C@@H](OC(=O)c2ccccc2)[C@H](OC(=O)c2ccccc2)[C@@H](COC(=O)c2ccccc2)O[C@H]1c1ccccn1.[Cl][Os+] [Os-7a]
IC50 [5]: 8.58 µM | A2780 SRB Max Inhibition [5]: >90% | Fibroblast SRB Max Inhibition [12]: 49.00% | IC50 [6]: 13.8 µM | A2780 MTT Max Inhibition [6, 19]: >90% | Fibroblast MTT Max Inhibition [7]: 65.18% | logD [13]: 2.15 | MIC [8]: 5 µM | MIC ([9]; 24 h): 10 µM | MIC [10, 20]: 5 µM | MIC [10, 21]: 5 µM | MIC [10, 22]: 10 µM | MIC [11, 23]: 10 µM | MIC [11, 24]: 10 µM | MIC [11, 25]: 5 µM | MIC [11, 26]: 5 µM | MIC [11, 27]: 5 µM | MIC [11, 28]: 5 µM

Cc1ccc(C(C)C)cc1.F[P-](F)(F)(F)(F)F.N[C@@H]1[C@@H](OC(=O)c2ccccc2)[C@H](OC(=O)c2ccccc2)[C@@H](COC(=O)c2ccccc2)O[C@H]1c1ccccn1.[Cl][Ru+] [Ru-7a]
IC50 [5]: 4.11 µM | A2780 SRB Max Inhibition [5]: >90% | Fibroblast SRB Max Inhibition [12]: 56.31% | IC50 [6]: 9.15 µM | A2780 MTT Max Inhibition [6, 19]: >90% | Fibroblast MTT Max Inhibition [7]: 65.18% | logD [13]: 1.15 | MIC [8]: 5 µM | MIC ([9]; 24 h): 5 µM | MIC [10, 20]: 5 µM | MIC [10, 21]: 5 µM | MIC [10, 22]: 5 µM | MIC [11, 23]: 5 µM | MIC [11, 24]: 5 µM | MIC [11, 25]: 5 µM | MIC [11, 26]: 5 µM | MIC [11, 27]: 5 µM | MIC [11, 28]: 5 µM

Cc1c(C)c(C)[c-](C)c1C.F[P-](F)(F)(F)(F)F.N[C@@H]1[C@@H](OC(=O)c2ccccc2)[C@H](OC(=O)c2ccccc2)[C@@H](COC(=O)c2ccccc2)O[C@H]1c1ccccn1.[Cl][Ir+2] [Ir-7a]
IC50 [5]: 6.2 µM | A2780 SRB Max Inhibition [5]: >90% | Fibroblast SRB Max Inhibition [12]: 56.31% | IC50 [6]: 11.6 µM | A2780 MTT Max Inhibition [6, 19]: >90% | Fibroblast MTT Max Inhibition [7]: 65.18% | logD [13]: 1.08 | MIC [8]: 40 µM | MIC ([9]; 24 h): 20 µM | MIC [10, 20]: 40 µM | MIC [10, 21]: 40 µM | MIC [10, 22]: 40 µM | MIC [11, 23]: 10 µM | MIC [11, 24]: 10 µM | MIC [11, 25]: 10 µM | MIC [11, 26]: 10 µM | MIC [11, 27]: 20 µM | MIC [11, 28]: 10 µM

Cc1ccc(C(C)C)cc1.F[P-](F)(F)(F)(F)F.O=C(OCC1OC(n2cc(-c3ccc4ccccc4n3)nn2)C(OC(=O)c2ccccc2)C(OC(=O)c2ccccc2)C1OC(=O)c1ccccc1)c1ccccc1.[Cl][Os+] (centres unmarked) [Ia]
IC50 [14]: 0.43 µM | IC50 [15]: 0.36 µM | IC50 [16]: 1.29 µM | MIC on Gram-positive multiresistant bacteria [17]: 5 to 20 µM | IC50 [18]: 1.35 µM
